Test results published in EP0361645B1, “Organic hydrazine derivatives for pharmaceutical use” (ROHM AND HAAS COMPANY, priority 1988, dated 1990).

Key:
[1] = tested on: dipteran larvae (both houseflies and mosquitoes) and certain coleopteran larvae; assay: Control of larvae and ovariole development in other insect orders; format: in vivo
Text: We have observed the induction of premature head capsule apolysis by Example No. 3 in all larval stages of M. sexta. This phenomenon has also been observed in larval Lepidoptera of the families Noctuidae, Pyralidae and Pieridae. […] This latter activity is consistent with its putative ecdysonergic mechanism of action.

[2] = tested on: antiecdysone antiserum; assay: Binding by antiecdysone antiserum (radioimmunoassay)
Protocol: The invention will now be further described by way of exemplification and by reference to the drawings in which; • Figure 1. Both 20-hydroxyecdysone and Example No. 3 induce process elaboration (A) and inhibition of cell proliferation (B) in Kr cells in a dose-dependent manner. Initial cell density was 2 X 10^6 cells/ml; after incubation of 1 ml aliquots of the cells with the compound for 48 hours the cells were triturated gently and the percentage of cells responding (with processes longer than approximately 17 um, see Cherbas et al. 189 Wilhelm Roux's Arch. 1 (1980)) and total cell density was determined by hemocytom- eter counting, relative to ethanol (1 ul)-treated controls. Determinations were in triplicate for each dose. […] Induction of acetylcholinesterase by varying concentrations of 20-hydroxyecdysone and Example No. 3. Kr cells at an initial density of 3 X 10^6 cells/ml (10 ml per sample) were incubated with the agonist for three days. After harvesting, by centrifugation at 3000 X g, the cell pellets were washed with Robb's Drosophila saline (18, 2 X 5 ml) at 4 ° C, then lysed by sonication in 1 ml of phosphate buffer (pH 7.4, I = 0.1 M) containing 0.5 M NaCI, 0.25 M EDTA and 0.5% TRITON? X-100. See Cherbas, 197 Science 275 (1977). Triton is a registered trademark of Rohm and Haas Company for a alkylaryl polyoxyethylene glycol surfactant. After centrifugation at 16,000 X g, the supernatants were assayed for acetylcholinesterase activity by an adaptation of the method of Ellman et al., 7 Biochem. Pharmacol. 88 (1961), by subtracting out any 412 nm absorbance observed in incubations in the presence of 2 X 10-5 eserine sulfate. […] Absorbance at 412 nm was then measured. Protein concentration in extracts was measured by the Biorad method. […] Ecdysteroid titers were measured by a radioimmunoassay adapted from Warren et al., 40 Experientia 393 (1984) with Protein A-Staph. aureus suspension (Sigma) used as the reagent to separate bound from free ligand. […]

[3] = Hemolymph titers of 14C-Example No. 3 in L5 hornworms after feeding; format: in vivo, M. sexta

CC(C)(C)N(NC(=O)c1ccccc1)C(=O)c1ccccc1 [Example No. 3, N'-t-butyl-N,N'-dibenzoylhydrazine]
control of larvae ([1]; houseflies, mosquitoes, certain coleopteran larvae): controls | ovariole development ([1]; in all three orders): inhibit ovariole development | binding by antiecdysone antiserum ([2]; 1 X 10^-4 M): not significantly bound | fold lower binding affinity than 20-hydroxyecdysone ([2]; antiecdysone antiserum): > 3125 fold | peak hemolymph concentration relative to concentrations required for a 50% response in Kr cell process elaboration and ^3H-ponasterone A displacement ([3]; 10 ug/g oral dose): 3 to 5 fold | concentration at 36 h ([3]; tobacco hornworm, hemolymph, po, 10 ug/g in diet, for at least 36 hours thereafter, read-out: residual hemolymph level): ~3 µM | Cmax at 6 h ([3]; tobacco hornworm, hemolymph, po, L5D0 larvae, 10 ug/g in diet, at six hours after the initiation of feeding, read-out: peak hemolymph concentration): 16 µM
